Where “and” joins values, the source holds several entries; their conditions need not be identical. Equal entries are not always repeated.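 Growth conditions: 96-well plates. Treatment: test compound, 48 hours, 5 concentrations. Analysis: linear interpolation between bracketing concentrations; unreached endpoints set to highest concentration. At the GI50, growth is halved. TGI: total growth inhibition.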 Some results are limits rather than exact numbers.

Broadly, the GI50 is the concentration that inhibits growth by half. As usually defined, the TGI is the concentration giving total growth inhibition. Low readings indicate greater sensitivity of the cells, high ones lower sensitivity of the cells.

Test systems include KM12 colon; SR leukemia; LOX IMVI melanoma; KM20L2 colon; OVCAR-3 ovarian; UACC-62 melanoma; OVCAR-8 ovarian; SNB-75 CNS; XF 498 CNS; MDA-MB-435.
What all share (experiment): DTP human tumour cell line panel, 48 h

As to `O=C(O)Cc1cccc2c(=O)cc(-c3ccccc3)oc12`, the GI50 was 334 µM in the experiment with KM12 colon; 280 µM in the experiment on LOX IMVI melanoma; 568 µM in the experiment with OVCAR-3 ovarian; 475 µM in the experiment on UACC-62 melanoma; 84.5 µM in the experiment with OVCAR-8 ovarian; 345 µM in the experiment on SNB-75 CNS. For the same molecule, the GI50 with MDA-MB-435 was 518 µM. Further, the TGI is 250 µM and > 889 µM in the experiment on KM12 colon; 250 µM and > 917 µM in the experiment on SR leukemia; 250 µM and > 909 µM with LOX IMVI melanoma; more than 250 µM in the experiment with KM20L2 colon; 250 µM and > 1000 µM in the experiment with OVCAR-3 ovarian; more than 1000 µM in the experiment on UACC-62 melanoma. Besides, the TGI with OVCAR-8 ovarian is more than 1000 µM; in the experiment on SNB-75 CNS, 249 µM and > 676 µM; in the experiment on XF 498 CNS, 89.7 µM; in the experiment on MDA-MB-435, more than 1000 µM.

In the case of `c1ccc(SC(Sc2ccccc2)=C2CCC2)cc1`, the TGI in the experiment on KM12 colon, with SR leukemia, with LOX IMVI melanoma, in the experiment with KM20L2 colon, in the experiment with OVCAR-3 ovarian and in the experiment with UACC-62 melanoma was more than 100 µM each time. Moreover, the concentration for total growth inhibition (TGI) in the experiment on OVCAR-8 ovarian, in the experiment on SNB-75 CNS and with XF 498 CNS was more than 100 µM in each case.

On to `Cc1ccc(/C=C/C(=O)c2ccc(Cl)c(Cl)c2)cc1`, for which the total growth inhibition concentration (TGI) in the experiment with KM12 colon, in the experiment on SR leukemia, in the experiment with LOX IMVI melanoma, in the experiment on KM20L2 colon, with OVCAR-3 ovarian and with UACC-62 melanoma was more than 100 µM each time. Moreover, the concentration for total growth inhibition (TGI) in the experiment on OVCAR-8 ovarian, with SNB-75 CNS and in the experiment with XF 498 CNS was more than 100 µM each time.

The record behind these values is PubChem BioAssay (NCI).
